Tests used:
Assay type in all cases: cell-based
[1] = test system: Human cecum-derived cell line NCI-H716; test: GLP-1 secretion promoting activity in NCI-H716 cells; conditions: 37° C., 60 minutes
Procedure: Human cecum-derived cell line NCI-H716 (ATCC No. CCL-251) was cultured in 10% FBS-containing DMEM/Ham's F-12 medium at 37° C. in the presence of 5% CO2. The NCI-H716 cells were plated on a poly-D-lysine-coated 96-well plate in 100,000 cells/well, followed by culturing for 2 days. Prior to the addition of a sample, the wells were washed with Hepes buffer (20 mM Hepes, 146 mM NaCl, 5 mM KCl, 1.5 mM CaCl2, 1 mM MgSO4, 5.5 mM D-glucose, 0.2% BSA, pH 7.4). Then, 50 μl of a solution of the sample in the same buffer, and incubation was performed at 37° C. for 60 minutes. Compounds No. 1 (20 mM), No. 7 (20 mM), No. 21 (20 mM), No. 22 (20 mM), No. 33 (7.5 mM) and No. 34 (7.5 mM) listed in TABLE 1 were used as the sample. As for control, Hepes buffer was used. After the supernatant was collected, the cells were precipitated by centrifugation (5000×g, 1 minute) and the supernatant was recovered. The GLP-1 concentration in the supernatant was measured as follows by the method for GLP-1 quantification using the GLP-1 receptor gene expression cells.
Human GLP-1 receptor gene (SEQ ID NO: 1) was incorporated into pcDNA3.1 in a conventional manner (López de Maturana R, Willshaw A, Kuntzsch A, Rudolph R, Donnelly D. J. Biol. Chem. 2003 Mar. 21; 278 (12): 10195-200.) to construct human GLP-1 receptor gene expression plasmid hGLP-1R/pcDNA3.1. Also, the chimeric gene (SEQ ID NO: 2) of human Gα15 gene and human gustducin gene was incorporated into pcDNA3.1 to construct G-protein expression plasmid Gα15-gust/pcDNA3.1. Using a transfection reagent FuGene 6 (Roche Japan, Inc.), hGLP-1R/pcDNA3.1 and Gα15-gust44/pcDNA3.1 were cotransfected to HEK293E cells (ATCC No. CRL-10852). After incubation in a CO2 incubator for 4 to 6 hours, the cells were suspended in 5% FBS-containing DMEM/Ham F12 and plated onto a poly-D-lysine-coated 96-well plate in 70,000 cells/well. After incubation for 24 hours in a CO2 incubator, changes in fluorescence intensity were begun to monitor immediately after the addition of a sample, using a FlexStation (Molecular Devices) according to the Ca^2+ fluorescence indicator FLIPR Calcium 4 Assay Kit protocol (Molecular Devices). Concentration dependence in response to changes in fluorescence intensity of human GLP-1 (7-36 amide; Peptide Institute, Inc.) was determined and used as a standard curve for quantitative determination of the sample. The expression plasmid used here may be constructed by the methods described in, e.g., Proc. Natl. Acad. Sci. USA. 1992 Sep. 15; 89 (18): 8641-5, FEBS Letters Volume 373, Issue 29, October 1995, Pages 182-186), The Journal of Neuroscience, Aug. 13, 2003, 23 (19): 7376-7380), etc.
The amount of GLP-1 secreted when the measurement value of control obtained using the buffer was made 1 was expressed as a relative value.

[2] = test system: Human cecum-derived cell line NCI-H716; test: CCK secretion promoting activity in NCI-H716 cells; conditions: 37° C., 30 minutes
Procedure: Human cecum-derived cell line NCI-H716 (ATCC No. CCL-251) was cultured in DMEM/Ham's F-12 medium containing 10% FBS at 37° C. in the presence of 5% CO2. The NCI-H716 cells were plated on a poly-L-lysine-coated 24-well plate in 600,000 cells/well, followed by culturing for 2 days. Prior to the addition of a sample, the wells were washed with Hepes buffer (20 mM Hepes, 146 mM NaCl, 5 mM KCl, 1.5 mM CaCl2, 1 mM MgSO4, 5.5 mM D-glucose, 0.02% BSA, pH 7.4). Then, 300 μl of a solution of the sample in the same buffer, and incubation was performed at 37° C. for 30 minutes. Compounds No. 1 (20 mM) No. 7 (2 mM), No. 21 (2 mM), No. 22 (2 mM), No. 33 (0.1 mM) and No. 34 (1 mM) listed in TABLE 2 were used as the sample. For control, Hepes buffer was used. After the supernatant was collected, the cells were precipitated by centrifugation (5000×g, 1 minute). The supernatant was recovered and lyophilized in a Speed Vac Concentrator from Savant Instruments Inc., and 60 μl of water was added thereto for dissolution. The CCK concentration in the solution was determined using an Enzyme Immunoassay Kit (EK-069-04; PHOENIX PHARMACEUTICALS).
The amount of CCK secreted when the measurement value of control obtained using the buffer was made 1 was expressed as a relative value.

human CaSR = molecular target: T1, human CaSR (Homo sapiens, UniProt P41180); test: Evaluation of CaSR agonist activity (Ca2+ fluorescence, FLIPR, 293E cells transfected with hCaSR/pcDNA3.1)
T1 construct: expressed in transfected cells; host or cells: 293E cells (HEK293 cells expressing EBNA1, ATCC No. CRL-10852), transient transfection
T1 sequence (P41180 20-1078): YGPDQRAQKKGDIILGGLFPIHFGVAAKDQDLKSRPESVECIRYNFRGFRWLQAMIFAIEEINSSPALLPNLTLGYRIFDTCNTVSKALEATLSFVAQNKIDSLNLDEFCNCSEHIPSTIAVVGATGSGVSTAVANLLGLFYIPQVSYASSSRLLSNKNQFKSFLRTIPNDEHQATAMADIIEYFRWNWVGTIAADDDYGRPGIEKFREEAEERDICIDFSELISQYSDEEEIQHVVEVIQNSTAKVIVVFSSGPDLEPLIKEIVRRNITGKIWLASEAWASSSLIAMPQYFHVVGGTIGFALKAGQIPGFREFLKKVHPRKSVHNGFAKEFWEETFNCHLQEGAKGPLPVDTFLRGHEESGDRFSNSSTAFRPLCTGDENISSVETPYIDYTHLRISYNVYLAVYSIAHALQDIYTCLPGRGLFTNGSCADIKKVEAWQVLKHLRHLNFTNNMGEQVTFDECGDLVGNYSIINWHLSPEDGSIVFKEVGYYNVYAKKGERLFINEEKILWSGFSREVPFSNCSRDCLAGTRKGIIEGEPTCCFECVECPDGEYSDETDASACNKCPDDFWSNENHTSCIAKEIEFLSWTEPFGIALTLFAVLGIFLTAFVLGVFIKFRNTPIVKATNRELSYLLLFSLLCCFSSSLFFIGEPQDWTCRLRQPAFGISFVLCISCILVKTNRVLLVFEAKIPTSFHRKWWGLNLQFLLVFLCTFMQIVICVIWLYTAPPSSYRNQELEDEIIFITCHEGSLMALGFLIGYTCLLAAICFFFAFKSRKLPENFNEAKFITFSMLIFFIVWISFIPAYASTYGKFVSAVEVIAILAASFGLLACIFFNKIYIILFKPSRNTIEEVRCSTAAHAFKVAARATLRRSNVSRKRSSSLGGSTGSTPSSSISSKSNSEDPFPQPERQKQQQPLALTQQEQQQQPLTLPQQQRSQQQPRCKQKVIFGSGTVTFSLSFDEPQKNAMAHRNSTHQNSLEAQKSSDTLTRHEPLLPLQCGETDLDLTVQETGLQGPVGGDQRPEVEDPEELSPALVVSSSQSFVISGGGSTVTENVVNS
Procedure: The CaSR gene was prepared in accordance with the method described in Example 1 of WO 07/55393. Using the recombinant plasmid obtained, human CaSR expression plasmid hCaSR/pcDNA3.1 was prepared.
293E cells (HEK293 cells expressing EBNA1, ATCC No. CRL-10852) were cultured in DMEM (Dulbecco's Modified Eagle's Medium containing […], NACALAI TESQUE, INC.) containing 10% fetal calf serum, in the presence of 250 μg/ml of G418. The cells were spread on a Petri dish of 10 cm diameter in 1.8×10^6 cells/15 ml. After the cells were allowed to stand in a CO2 incubator (5% CO2, 37° C.) for 24 hours, human CaSR expression plasmid hCaSR/pcDNA3.1 was transfected with a transfection reagent Mirus TransIT 293 (Takara Bio Inc.). After the cells were allowed to stand in the CO2 incubator for 24 hours, the cells were collected by DMEM containing 10% fetal calf serum and plated on a poly-D-lysine coated 384 well plate (Falcon) in 15,000 cells/well. After the cells were allowed to stand in the CO2 incubator for 24 hours, the medium was removed. Then, 50 μL/well of Ca^2+ fluorescence indicator Calcium 4 Assay Kit (Molecular Devices) that was dissolved in an assay buffer (146 mM NaCl, 5 mM KCl, 1 mM MgSO4, 1 mg/ml glucose, 20 mM HEPES (pH 7.2) and 1.5 mM CaCl2) was added thereto, and allowed to stand at 37° C. for an hour and then at room temperature for 30 minutes to load the fluorescence indicator. The 384 well plate described above was transferred to FLIPR (Molecular Devices), and 12.5 μL/well of a compound that was dissolved in a 0.1% BSA containing-assay buffer was added thereto. Changes in fluorescence intensity were monitored for 3 minutes. Compound No. 20 was purchased from Bachem.

[3] = 293E cells expressing human CaSR, 1.5 mM CaCl2 assay buffer, Table 5
[4] = measured in a manner similar to Example III, Table 6

With `N[C@@H](CCC(=O)Nc1cccc(S(=O)(=O)O)c1)C(=O)O` [Compound 1, N^5-(3-sulfophenyl)-L-glutamine] the “Relative Value (amount of GLP-1 secreted, buffer control = 1)” value ([1]; sample 20 mM) was 1.82 and the “Relative Value (amount of CCK secreted, buffer control = 1)” value ([2]; sample 20 mM) was 2.16.

For `N[C@@H](CCC(=O)Nc1cc(Cl)cc(S(=O)(=O)O)c1O)C(=O)O` [Compound 7, N^5-(5-chloro-2-hydroxy-3-sulfophenyl)-L-glutamine], the “Relative Value (amount of GLP-1 secreted, buffer control = 1)” value ([1]; sample 20 mM) was 2.90 and the “Relative Value (amount of CCK secreted, buffer control = 1)” value ([2]; sample 2 mM) was 1.99.

`Cc1c(Cl)cc(NC(=O)CC[C@H](N)C(=O)O)cc1S(=O)(=O)O` [Compound 21, N^5-(3-chloro-4-methyl-5-sulfophenyl)-L-glutamine] was tested, and the “Relative Value (amount of GLP-1 secreted, buffer control = 1)” value ([1]; sample 20 mM) was 4.38 and the “Relative Value (amount of CCK secreted, buffer control = 1)” value ([2]; sample 2 mM) was 4.54.

With `Cc1c(Cl)cc(S(=O)(=O)O)cc1NC(=O)CC[C@H](N)C(=O)O` [Compound 22, N^5-(3-chloro-2-methyl-5-sulfophenyl)-L-glutamine] the “Relative Value (amount of GLP-1 secreted, buffer control = 1)” value ([1]; sample 20 mM) was 2.22 and the “Relative Value (amount of CCK secreted, buffer control = 1)” value ([2]; sample 2 mM) was 2.49.

With `Cc1c(Cl)cc(NC(=O)OC[C@H](N)C(=O)O)cc1S(=O)(=O)O` [Compound 33, O-{[(3-chloro-4-methyl-5-sulfophenyl)amino]carbonyl}-L-serine] the “Relative Value (amount of GLP-1 secreted, buffer control = 1)” value ([1]; sample 7.5 mM) was 1.87 and the “Relative Value (amount of CCK secreted, buffer control = 1)” value ([2]; sample 0.1 mM) was 1.51.

In the case of `N[C@@H](COC(=O)Nc1cc(Cl)cc(S(=O)(=O)O)c1O)C(=O)O` [Compound 34], the “Relative Value (amount of GLP-1 secreted, buffer control = 1)” value ([1]; sample 7.5 mM) is reported as 2.88 and the “Relative Value (amount of CCK secreted, buffer control = 1)” value ([2]; sample 1 mM) is reported as 1.77.

In the case of `N[C@@H](CCC(=O)N(O)c1cccc(S(=O)(=O)O)c1)C(=O)O` [Compound 42, N^5-hydroxy-N^5-(3-sulfophenyl)-L-glutamine], the EC50 (human CaSR; [3]) is reported as 31 nM.

With `N[C@@H](COC(=O)N(O)c1cccc(S(=O)(=O)O)c1)C(=O)O` [Compound 43, 0-{[hydroxy(3-sulfophenyl)amino]carbonyl}-L-serine] the EC50 (human CaSR; [3]) was 43 nM.

`COC(=O)[C@@H](N)CCC(=O)Nc1cccc(S(=O)(=O)O)c1` [Compound 44, 3-[(4S)-4-amino-5-methoxy-5-oxopentanamido]benzene-1-sulfonic acid] gave an EC50 (human CaSR; [4]) of 23 nM.

For `COC(=O)[C@@H](N)COC(=O)Nc1cc(Cl)c(C)c(S(=O)(=O)O)c1` [Compound 49, 5-({[(2S)-2-amino-3-methoxy-3-oxopropoxy]carbonyl}amino)-3-chloro-2-methylbenzene-1-sulfonic acid], the EC50 (human CaSR; [4]) was 110 nM.

In the case of `CCOC(=O)[C@@H](N)CCC(=O)Nc1cc(Cl)cc(S(=O)(=O)O)c1O` [Compound 50, 3-[(4S)-4-amino-5-ethoxy-5-oxopentanamido]-5-chloro-2-hydroxybenzene-1-sulfonic acid], the EC50 (human CaSR; [4]) is reported as 4 nM.
